Source: patent publication US20070135457A1, “Pyrido[2,3-d]pyrimidine-2,4-diamines as pde2 inhibitors” (Pfizer Inc., priority 2003, published 2007)
Read-outs that look alike come from different tables or passages of the source.

Assays:
[1] = biological target: T1, PDE 2 enzyme isolated from human platelets (Homo sapiens, UniProt O00408); experiment: PDE 2 enzyme scintillation proximity assay (SPA); assay type: biochemical
T1 construct: PDE 2 enzyme was isolated from human platelets; from tissue; host or cells: human platelets (pooled blood from multiple donors); HiTrap Q anion-exchange fraction eluting at about 325 mM NaCl
Protocol: PDE 2 enzyme was isolated from human platelets with approximately 1.4 L of blood from multiple donors used to make the platelet pellets. Platelets were resuspended in approximately 75 mL of lysis buffer [20 mM Tris pH 7.2, 5 mM MgCl2, 250 mM Sucrose, 1 mM DTT, 1 μL/2 mL Sigma Protease inhibitor #8340; Sigma-Aldrich; St. Louis, Mo.] and lysed by sonication at 4° C., with 3 rounds of 1 min bursts then spun at 4° C. overnight at 100,000×g. Cleared lysates were loaded to AKTA Explorer FPLC (Amersham Biosciences; Piscataway, N.J.) in a series of three chromatographic separations, with an average load volume of 25 mL. A 5 mL HiTrap Q anion exchange column (Amersham Biosciences) was used. […] Two major cGMP activity fractions (PDE 5 and PDE 2) were isolated and pooled separately. The PDE 2-pooled fraction total was approximately 40 mL which was dispensed in cryovials of 200 μl/vial and placed in storage at −80° C.
The inhibitory activity of the compounds of formula (I) on recombinant or isolated PDE 2, and other PDE's, was determined using the […] scintillation proximity assay (SPA) kits from Amersham International (Little Chalfont, England). The SPA assays were performed using 96 well plates. The PDE SPA yttrium silicate beads (Amersham Biosciences) bind preferentially to the linear nucleotide, GMP, compared to the cyclic nucleotide, cGMP. ^3H-cGMP was added to the reaction and when the product, ^3H-GMP, was in […] to the beads, the scintillant within the bead was excited, which was detected using a Packard scintillation counter (Perkin-Elmer Life Sciences; Boston, Mass.). The enzyme concentration used was in the linear range and the Km of the enzyme was determined (15 uM). The final substrate concentration was <1/3 of Km (1 μM) so that IC50 values would approximate the Ki values. The assay was validated using literature compounds as controls before testing compounds. Then, PDE catalytic activity measurements obtained in the presence of the test compound, and those obtained in the absence of the test compound, were compared and the lC50 value is determined. […]

[2] = tested on: femur (periosteal bone induction); experiment: Rat periosteal injection model; assay type: in vivo; settings: daily local injection five times per week for two weeks; Day 15; male Sprague-Dawley rats
Protocol: Rats were anesthetized with isoflurane (2-3 min) in a conduction chamber located in a fume hood. The right hindlimb of each rat was shaved and cleaned. A 25 gauge needle attached to a syringe was pre-filled with a formulation of the test compound for local injection. The formulation was injected onto the subperiosteum of femur in a volume of 5-15 μL for 14 days. The rats were sacrificed after dosing, the femurs were collected, and then analyzed by radiography and dual-energy X-ray absorptiometry (DEXA).
The right femur of three-week old male Sprague-Dawley rats received a daily injection of vehicle or test compound five times per week for two weeks. On Day 15, all rats were sacrificed and the right femurs were collected for analysis. Periosteal bone induction was assessed using radiography and DEXA. […] The bone mineral content (BMC) of the injected region of the femur (area between lesser trochanter and mid-shaft of the femur) was assessed by DEXA comparing rats treated with test compound with those treated only with vehicle. In this model, N^4-(3,5-dimethoxy-benzyl)-N^2-(2-pyridin-4-yl-ethyl)-pyrido[2,3-d]pyrimidine-2,4-diamine, 2-(3-{3-[4-(3,4-dimethoxy-benzylamino)-pyrido[2,3-d]pyrimidin-2-ylamino]-propyl}-phenyl)-propan-2-ol, and N^4-(3,4-dimethoxy-benzyl)-N^2-(3-phenyl-propyl)-pyrido[2,3-d]pyrimidine-2,4-diamine increased BMC by 34%, 49%, and 33% respectively. Additionally, 9-(1-acetyl-4-phenyl-butyl)-2-(3,4-dimethoxy-benzyl)-1,9-dihydropurin-6-one increased BMC by 20% in the aforementioned model.

fractured right femurs = experiment: Rat transverse femoral fracture model; assay type: in vivo; settings: single 5 mg dose injected percutaneously into fracture site; three weeks after injection; male rats
Protocol: Male Sprague-Dawley rats at 3 to 4 months of age were used. The animals were anesthetized with ketamine and xylazine at doses of 100 and 10 mg/kg, respectively. The right hindlimb of each rat was shaved and cleaned. A 1 cm incision was made just lateral to the patella and the femoral condyle was exposed. A Kirschner wire (0.045″ in diameter) was introduced into the intramedullary canal through the intercondylar portion to serve as an internal stabilization. The muscle incision was closed with vicryl and the skin incision was closed with stainless steel wound clips. The mid-diaphysis of the pinned femur was fractured by means of a three-point bending device driven by a dropped weight. The rats were permitted full weight-bearing and unrestricted activity after awakening from anesthesia. The test compounds were administered on various days after surgery by percutaneous injection onto the fracture site. The animals were sacrificed after treatment and the femurs were collected for analysis. Fracture healing was evaluated by using radiography, histological, and biomechanical test (F. Bonnarens, et al., Journal of Orthopaedic Research, 2, 97-101 (1984).
Three month-old male rats were subjected to transverse fracture of their right femurs under general anesthesia. […] Three weeks after the injections, the rats were sacrificed and the right femurs were harvested and analyzed. […]

[3] = SPA, 1 μM substrate, read-out: PDE 2 Inhibition

T1 sequence (O00408 whole entry): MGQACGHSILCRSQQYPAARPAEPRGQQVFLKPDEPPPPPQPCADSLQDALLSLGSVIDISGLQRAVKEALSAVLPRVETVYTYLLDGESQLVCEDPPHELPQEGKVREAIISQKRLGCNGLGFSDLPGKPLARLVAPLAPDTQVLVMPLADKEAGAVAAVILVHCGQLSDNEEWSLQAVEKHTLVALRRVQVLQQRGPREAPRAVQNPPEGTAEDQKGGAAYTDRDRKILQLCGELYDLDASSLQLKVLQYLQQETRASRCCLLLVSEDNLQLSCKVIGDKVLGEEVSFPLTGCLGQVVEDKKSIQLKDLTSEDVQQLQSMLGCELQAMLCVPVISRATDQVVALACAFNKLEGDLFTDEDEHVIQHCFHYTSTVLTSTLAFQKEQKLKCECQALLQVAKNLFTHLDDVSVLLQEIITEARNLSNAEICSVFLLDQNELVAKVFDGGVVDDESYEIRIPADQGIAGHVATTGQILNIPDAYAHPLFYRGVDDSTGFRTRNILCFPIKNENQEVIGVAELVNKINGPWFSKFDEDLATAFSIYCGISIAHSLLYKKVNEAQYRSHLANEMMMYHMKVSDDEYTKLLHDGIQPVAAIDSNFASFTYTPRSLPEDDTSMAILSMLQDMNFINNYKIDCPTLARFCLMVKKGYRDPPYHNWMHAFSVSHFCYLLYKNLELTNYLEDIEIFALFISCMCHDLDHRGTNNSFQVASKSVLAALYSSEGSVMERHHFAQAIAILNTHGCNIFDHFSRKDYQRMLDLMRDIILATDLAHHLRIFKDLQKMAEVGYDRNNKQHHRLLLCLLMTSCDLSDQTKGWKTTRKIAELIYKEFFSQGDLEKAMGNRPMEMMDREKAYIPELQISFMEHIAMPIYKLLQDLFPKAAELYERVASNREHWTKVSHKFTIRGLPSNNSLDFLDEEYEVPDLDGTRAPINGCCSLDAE

Row | IC50 ([1]; PDE 2, read-out: IC50) [nM] | IC50 [1, 3] [nM] | melting point [°C] | Structure (SMILES) | bone mineral content (BMC) increase of injected region of femur by DEXA vs vehicle [2] [%] | Force-to-failure increased compared to placebo (fractured right femurs) [%] | stiffness increased compared to placebo (fractured right femurs) [%]
1 | 3 |  |  | COc1ccc(Cc2nc3c(ncn3C(CCCc3ccccc3)C(C)=O)c(=O)[nH]2)cc1OC (stereo not shown) [9-(1-acetyl-4-phenyl-butyl)-2-(3,4-dimethoxy-benzyl)-1,9-dihydropurin-6-one, reference compound] | 20 |  | 
2 |  | 250 to 1000 | 234 to 235 | COc1cc(CNc2nc(NCCc3ccncc3)nc3ncccc23)cc(OC)c1 [Example 3, N^4-(3,5-Dimethoxy-benzyl)-N^2-(2-pyridin-4-yl-ethyl)-pyrido[2,3-d]pyrimidine-2,4-diamine] | 34 |  | 
3 |  | 250 to 1000 | 204 to 205 | COc1ccc(CNc2nc(NCCCc3cccc(C(C)(C)O)c3)nc3ncccc23)cc1OC [Example 29, 2-(3-{3-[4-(3,4-Dimethoxy-benzylamino)-pyrido[2,3-d]pyrimidin-2-ylamino]-propyl}-phenyl)-propan-2-ol] | 49 |  | 
4 |  | 250 to 1000 | 220 to 222 | COc1ccc(CNc2nc(NCCCc3ccc(C#N)cc3)nc3ncccc23)cc1OC [Example 30, 4-{3-[4-(3,4-Dimethoxy-benzylamino)-pyrido[2,3-d]pyrimidin-2-ylamino]-propyl}-benzonitrile] |  |  | 
5 |  | 250 to 1000 | 190 to 192 | COc1ccc(CNc2nc(NCCCc3ccccc3)nc3ncccc23)cc1OC [Example 32, N^4-(3,4-Dimethoxy-benzyl)-N^2-(3-phenyl-propyl)-pyrido[2,3-d]pyrimidine-2,4-diamine] | 33 | 19 | 62
6 |  | 50 to 250 | 165 to 167 | COc1cc(CNc2nc(NCCOc3ccccc3)nc3ncccc23)cc(OC)c1 [Example 33, N^4-(3,5-Dimethoxy-benzyl)-N^2-(3-phenoxy-ethyl)-pyrido[2,3-d]pyrimidine-2,4-diamine] |  |  | 
7 |  | 250 to 1000 | 181 to 182 | CCOc1cc(CNc2nc(NCCCc3ccccc3)nc3ncccc23)ccc1OC [Example 34, N^4-(3-Ethoxy-4-methoxy-benzyl)-N^2-(3-phenyl-propyl)-pyrido[2,3-d]pyrimidine-2,4-diamine] |  |  | 
8 |  | 250 to 1000 | 150 to 152 | CCOc1cc(CNc2nc(NCCCc3ccc(C(C)(C)O)cc3)nc3ncccc23)ccc1OC [Example 35, 2-(4-{3-[4-(3-Ethoxy-4-methoxy-benzylamino)-pyrido[2,3-d]pyrimidin-2-ylamino]-propyl}-phenyl)-propan-2-ol] |  |  | 
9 |  | 250 to 1000 | 198 to 200 | COc1ccc(CNc2nc(NCCCc3ccc(C(=O)C(F)(F)F)cc3)nc3ncccc23)cc1OC [Example 36, 1-(4-{3-[4-(3,4-Dimethoxy-benzylamino)-pyrido[2,3-d]pyrimidin-2-ylamino]-propyl}-phenyl)-2,2,2-trifluoro-ethanone] |  |  | 
10 |  | 250 to 1000 | 152 to 155 | COc1ccc(CNc2nc(NCCCc3cccc(C(C)=O)c3)nc3ncccc23)cc1OC [Example 37, 1-(3-{3-[4-(3,4-Dimethoxy-benzylamino)-pyrido[2,3-d]pyrimidin-2-ylamino]-propyl}-phenyl)-ethanone] |  |  | 
